Source: ChEMBL document CHEMBL1151287, “Discorhabdin W, the first dimeric discorhabdin” (J Nat Prod, 2005)

System: P388
Assay: Cytotoxicity against mouse P388 cells
Assay type: functional, cell-based

Compound	IC50 [nM]
O=C1C=C[C@@]23C[C@@H](NC4=C2C2=NCCc5c[nH]c(c52)C4=O)SC3=C1	510
O=C1C2=C3C4=[N+](CCc5c[nH]c1c54)[C@@H]1C(=O)C=C4S[C@@H](C[C@@]43[C@H]1O)N2 [DISCORHABDIN L]	1100
O=C1C=C(SSC2=CC(=O)C(Br)=C[C@]23C=CNC2=C3C3=NCCc4c[nH]c(c43)C2=O)[C@@]2(C=CNC3=C2C2=NCCc4c[nH]c(c42)C3=O)C=C1Br [DISCORHABDIN W]	84
O=C1C2=C3C4=[N+](CCc5c[nH]c1c54)[C@H]1C[C@@]34C[C@@H](N2)SC4=CC1=O [DISCORHABDIN D]	1600
O=C1C=C2S[C@H]3C[C@]2(C=C1Br)C1=C(N3)C(=O)c2[nH]cc3c2C1=NCC3 [DISCORHABDIN B]	87
